Laboratory results as given in US6794169B2, “UDP-N-acetylglucosamine: galactose-β1,3-N-acetylgalactosamine-α-R / (GlcNAc to GalNAc) β1,6-N-acetylglucosaminyltransferase, C2GnT3” (Glycozym ApS, priority 1999, dated 2004).

What was measured:
[1] = target: T1, C2GnT1 (Homo sapiens, UniProt Q02742); assay: GlcNAc-transferase activity of C2GnT1 with acceptor substrates; type: biochemical
T1 sequence (Q02742 1-428): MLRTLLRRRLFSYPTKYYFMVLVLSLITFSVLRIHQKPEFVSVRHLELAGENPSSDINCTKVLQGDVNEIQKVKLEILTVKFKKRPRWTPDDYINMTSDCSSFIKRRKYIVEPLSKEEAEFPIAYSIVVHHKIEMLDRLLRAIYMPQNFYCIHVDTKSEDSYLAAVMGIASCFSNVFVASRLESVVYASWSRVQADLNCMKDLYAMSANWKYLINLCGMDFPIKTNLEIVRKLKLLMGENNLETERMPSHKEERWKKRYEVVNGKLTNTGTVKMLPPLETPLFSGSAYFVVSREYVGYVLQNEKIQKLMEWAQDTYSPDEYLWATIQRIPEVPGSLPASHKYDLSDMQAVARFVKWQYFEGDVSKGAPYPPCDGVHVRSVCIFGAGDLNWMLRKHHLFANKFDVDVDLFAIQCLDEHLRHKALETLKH
Description: (§1) Controls included the pAcGP67-GalNAc-T3-sol (24). The kinetic properties were determined with partially purified enzymes expressed in High Five™ cells. Partial purification was performed by consecutive chromatography on Amberlite IRA-95, DEAE-Sephacryl and SP-Sepharose essentially as described (25; 25).
(§2) Standard assays were performed using culture supernatant from infected cells in 50 μl reaction mixtures containing 100 mM MES (pH 6.5), 0.1% Nonidet P-40, 150 μM UDP-[^14C]-GlcNAc (2,000 cpm/nmol) (Amersham Pharmacia Biotech), and the indicated concentrations of acceptor substrates (Sigma and Toronto Research Laboratories Ltd., see Table I for structures). Reaction products were quantified by chromatography on Dowex AG1-X8.

[2] = target: T2, C2GnT3 (Homo sapiens, UniProt Q9P109); assay: GlcNAc-transferase activity of recombinant soluble C2GnT3 with acceptor/donor substrates; type: biochemical; conditions: for Substrate specificity, C2GnT3 activity: partially purified media of infected High Five cells, background subtracted; for C2GnT3 activity with acceptor substrate (in words): as acceptor substrate; for C2GnT3 activity with donor substrate (in words): as donor substrate, data not shown
T2 construct: An expression vector construct designed to encode amino acid residues 39-453 of C2GnT3; gp67 secretion signal of vector pAcGP67A (N); made in house; host or cells: Sf9 insect cells (baculovirus; culture supernatant); High Five cells for kinetic properties (partially purified)
T2 sequence (Q9P109 39-453): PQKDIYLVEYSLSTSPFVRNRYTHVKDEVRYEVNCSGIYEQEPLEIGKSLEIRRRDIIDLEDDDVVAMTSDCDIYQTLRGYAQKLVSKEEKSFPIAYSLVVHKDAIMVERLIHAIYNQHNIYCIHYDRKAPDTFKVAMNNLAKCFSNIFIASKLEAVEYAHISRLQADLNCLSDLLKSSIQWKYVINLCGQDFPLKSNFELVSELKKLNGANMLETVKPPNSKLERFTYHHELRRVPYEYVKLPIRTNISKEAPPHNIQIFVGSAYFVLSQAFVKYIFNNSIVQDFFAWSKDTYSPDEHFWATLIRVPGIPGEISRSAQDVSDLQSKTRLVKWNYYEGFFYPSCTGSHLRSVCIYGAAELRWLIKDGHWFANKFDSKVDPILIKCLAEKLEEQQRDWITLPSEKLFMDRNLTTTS
Source text: with BamH1 and EcoRI restriction sites, respectively (FIG. 2). The PCR product was cloned between the BamHI and EcoRI sites of pAcGP67A (PharMingen), and the insert was fully sequenced. pAcGP67-C2GnT3-sol was co-transfected with Baculo-Gold™ DNA (PharMingen) as described previously (23). Recombinant Baculovirus was obtained after two successive amplifications in Sf9 cells grown in serum-containing medium, and titers of virus were estimated by titration in 24-well plates with monitoring of enzyme activities.
as §1, §2

Question: With `CC(=O)N[C@H]1[C@H](O[C@H]2[C@@H](O)[C@@H](CO)O[C@@H](O[C@H]3[C@H](O)[C@@H](O)C(O)O[C@@H]3CO)[C@@H]2O)O[C@H](CO)[C@@H](O[C@@H]2O[C@H](CO)[C@H](O)[C@H](O)[C@H]2O)[C@@H]1O` (mixture of isomers) [lacto-N-neo-tetraose] as the compound, how does the “Substrate specificity, C2GnT1 activity” value ([1]; acceptor substrate 2 mM) read?
Answer: <0.1 nmol/h/mg

Question: What about the “Substrate specificity, C2GnT1 activity” value ([1]; acceptor substrate 10 mM) of the same compound?
Answer: <0.1 nmol/h/mg

Question: And the “Substrate specificity, C2GnT3 activity” value ([2]; acceptor substrate 2 mM)?
Answer: <0.1 nmol/h/mg

Question: What about the “Substrate specificity, C2GnT3 activity” value ([2]; acceptor substrate 10 mM) of the same compound?
Answer: <0.1 nmol/h/mg

Question: What about the “C2GnT3 activity with acceptor substrate (in words)” value [2] of the same compound?
Answer: no activity

Question: What does the source list for `CC(=O)N[C@H]1C(O)O[C@H](CO)[C@H](O)[C@@H]1O` (stereo partly drawn) [D-GalNAc]?
Answer: Substrate specificity, C2GnT1 activity ([1]; acceptor substrate 2 mM): <0.1 nmol/h/mg; Substrate specificity, C2GnT1 activity ([1]; acceptor substrate 10 mM): <0.1 nmol/h/mg; Substrate specificity, C2GnT3 activity ([2]; acceptor substrate 2 mM): <0.1 nmol/h/mg; Substrate specificity, C2GnT3 activity ([2]; acceptor substrate 10 mM): <0.1 nmol/h/mg

Question: For `CC(=O)N[C@H]1[C@@H](OP(=O)(O)OP(=O)(O)OC[C@H]2O[C@@H](n3ccc(=O)[nH]c3=O)[C@H](O)[C@@H]2O)O[C@H](CO)[C@H](O)[C@@H]1O` [UDP-GalNAc], which “C2GnT3 activity with donor substrate (in words)” value [2] is on record?
Answer: no activity

Question: `CC(=O)N[C@H]1[C@@H](OP(=O)(O)OP(=O)(O)OC[C@H]2O[C@@H](n3ccc(=O)[nH]c3=O)[C@H](O)[C@@H]2O)O[C@H](CO)[C@@H](O)[C@@H]1O` [UDP-GlcNAc, UDP-N-acetylglucosamine] was tested. Which “C2GnT3 activity with donor substrate (in words)” value [2] did it give?
Answer: strict donor substrate specificity

Question: Which results are given for `CC(=O)N[C@H]1[C@@H](Oc2ccc([N+](=O)[O-])cc2)O[C@H](CO)[C@H](O)[C@@H]1O` [α-D-GalNAc-1-p-Nph]?
Answer: Substrate specificity, C2GnT1 activity ([1]; acceptor substrate 2 mM): <0.1 nmol/h/mg; Substrate specificity, C2GnT1 activity ([1]; acceptor substrate 10 mM): <0.1 nmol/h/mg; Substrate specificity, C2GnT3 activity ([2]; acceptor substrate 2 mM): <0.1 nmol/h/mg; Substrate specificity, C2GnT3 activity ([2]; acceptor substrate 10 mM): <0.1 nmol/h/mg; C2GnT3 activity with acceptor substrate (in words) [2]: no activity

Question: Which results are given for `CC(=O)N[C@H]1[C@@H](Oc2ccc([N+](=O)[O-])cc2)O[C@H](CO)[C@H](O)[C@@H]1O[C@@H]1O[C@H](CO)[C@H](O)[C@H](O)[C@H]1O` [β-D-Gal-(1-3)-α-D-GalNAc-1-p-Nph]?
Answer: Substrate specificity, C2GnT1 activity ([1]; acceptor substrate 2 mM): 16.2 nmol/h/mg; Substrate specificity, C2GnT1 activity ([1]; acceptor substrate 10 mM): 23.6 nmol/h/mg; Substrate specificity, C2GnT3 activity ([2]; acceptor substrate 2 mM): 18.1 nmol/h/mg; Substrate specificity, C2GnT3 activity ([2]; acceptor substrate 10 mM): 26.1 nmol/h/mg; Substrate inhibition of C2GnT3 enzyme activity ([2]; high acceptor concentrations up to 20 mM): No substrate inhibition

Question: `CC(=O)N[C@@H]1[C@@H](O[C@@H]2O[C@H](CO)[C@H](O)[C@H](O)[C@H]2O)[C@@H](O)[C@@H](CO)O[C@@H]1O` [β-D-Gal-(1-3)-α-D-GalNAc] was tested. Which “Substrate specificity, C2GnT1 activity” value ([1]; acceptor substrate 2 mM) did it give?
Answer: 9.6 nmol/h/mg

Question: What about the “Substrate specificity, C2GnT1 activity” value ([1]; acceptor substrate 10 mM) of the same compound?
Answer: 19.0 nmol/h/mg

Question: What about the “Substrate specificity, C2GnT3 activity” value ([2]; acceptor substrate 2 mM) of the same compound?
Answer: 6.6 nmol/h/mg

Question: What about the “Substrate specificity, C2GnT3 activity” value ([2]; acceptor substrate 10 mM) of the same compound?
Answer: 14.3 nmol/h/mg

Question: With `CC(=O)NC1C(OC2C(O)C(CO)OC(Oc3ccc([N+](=O)[O-])cc3)C2NC(C)=O)OC(CO)C(O)C1O` [β-D-GlcNAc-(1-3)-α-D-GalNAc-1-p-Nph] as the compound, how does the “Substrate specificity, C2GnT1 activity” value ([1]; acceptor substrate 2 mM) read?
Answer: <0.1 nmol/h/mg

Question: And the “Substrate specificity, C2GnT1 activity” value ([1]; acceptor substrate 10 mM)?
Answer: <0.1 nmol/h/mg

Question: What about the “Substrate specificity, C2GnT3 activity” value ([2]; acceptor substrate 2 mM) of the same compound?
Answer: <0.1 nmol/h/mg

Question: And the “Substrate specificity, C2GnT3 activity” value ([2]; acceptor substrate 10 mM)?
Answer: <0.1 nmol/h/mg

Question: Which results are given for `CO[C@@H]1O[C@H](CO)[C@H](O)[C@H](O[C@@H]2O[C@H](CO)[C@@H](O)[C@H](O)[C@H]2NC(C)=O)[C@H]1O` [β-D-GlcNAc-(1-3)-β-D-Gal-1-Me]?
Answer: Substrate specificity, C2GnT1 activity ([1]; acceptor substrate 2 mM): <0.1 nmol/h/mg; Substrate specificity, C2GnT1 activity ([1]; acceptor substrate 10 mM): <0.1 nmol/h/mg; Substrate specificity, C2GnT3 activity ([2]; acceptor substrate 2 mM): <0.1 nmol/h/mg; Substrate specificity, C2GnT3 activity ([2]; acceptor substrate 10 mM): <0.1 nmol/h/mg; C2GnT3 activity with acceptor substrate (in words) [2]: no activity
